Experimental data as given in article PMC11085872, “Structure-Based Design of Novel Thiazolone[3,2-a]pyrimidine Derivatives as Potent RNase H Inhibitors for HIV Therapy” (Molecules, 2024).

Assays:
[1] = biological target: T1, HIV-1 RT-associated RNase H (Human immunodeficiency virus type 1 group M subtype B, UniProt P03366); assay: RNase H polymerase-independent cleavage assay; format: biochemical; conditions: for IC50: IC50, compound concentration required to reduce HIV-1 RT-associated RNase H activity by 50%; for remaining activity at 100 µM: read-out: Percentage of the control activity measured at the indicated compound concentration
T1 construct: His-tagged p66/p51 HIV-1 RT group M subtype B; His tag; made in house; host or cells: Escherichia coli strain M15 (plasmid p6HRT-prot)
Experimental: The Ar^1 and Ar^2 aromatic segments of the molecule also approach the protein surface, through hydrophobic interactions. These findings provide important information for further structural optimization. All these newly designed thiazolone[3,2-a]pyrimidine derivatives were evaluated for their inhibitory activity against HIV RT-associated RNase H, using the diketo acid RDS1643 as positive control. […] The decrease in activity observed in compounds containing a sulfonic acid group might be attributed to the excessively strong acidity of the sulfonic acid group, which could protonate the diazo group within the molecule. […] When Ar^2 was changed from a phenyl group to a naphthyl group, the activity of compound 10f gained a great improvement over that of compound 10k. […] And when a negatively charged polar group was present at the 2-position of Ar^2, the inhibitory activity is enhanced. […]
3. Biology Experimental section
3.1 Expression and purification of recombinant HIV-1 RTs.
His-tagged p66/p51 HIV-1 RT group M subtype B coded in a p6HRT-prot plasmid was expressed in the Escherichia coli strain M15.1 Heterodimeric RTs were expressed essentially and purified as described.2 E. coli cells harboring the expression vector were cultured until reaching an optical density at 600 nm of 0.7. Induction of protein expression was achieved by treating the cells with 1.7 mM isopropyl β-D-1-thiogalactopyranoside (IPTG) for a duration of 4 hours. The subsequent purification of the protein was performed using a BioLogic LP system (BioRad) employing a combination of immobilized metal affinity chromatography and ion exchange […]
To initiate the purification process, the cell pellets were resuspended in lysis buffer at a ratio of 1:2 (cell pellet volume: lysis buffer volume). The lysis buffer used consisted of 50 mM sodium phosphate buffer with a pH of 7.8, supplemented with 0.5 mg/ml lysozyme. The resuspended cells were incubated on ice for 20 minutes. Following this, NaCl was added to achieve a final concentration of 0.3 M. The cells were then subjected to sonication, with four cycles of 60 seconds each, alternating between one second on and one second off. Subsequently, the cell lysate was centrifuged at 30, 000×g for 1 […]
The supernatant obtained from the centrifugation step was loaded onto a Ni2+-NTA-Sepharose column that had been pre-equilibrated with a loading buffer consisting of 50 mM sodium phosphate buffer (pH 7.8), 0.3 M NaCl, 10% glycerol, and 10 mM imidazole. The column was washed with a buffer containing 50 mM sodium phosphate buffer (pH 6.0), 0.3 M NaCl, 10% glycerol, and 80 mM imidazole. The target protein, RT, was eluted using an imidazole gradient ranging from 0.08 M to 0.5 M in the wash buffer. Fractions containing the enzyme were collected and combined, and then diluted 1:1 with 50 mM sodium phosphate buffer (pH 7.0) containing 10% glycerol. The diluted protein sample was loaded onto a Hi-trap heparin HP column that had been pre-equilibrated with 10 column volumes of a loading buffer consisting of 50 mM sodium phosphate buffer (pH 7.0), 10% glycerol, and 150 mM NaCl. The column was washed with the loading buffer, and the RT enzyme was eluted using Elute Buffer 2, which
(1 picture or pasted object on this page, not shown here) […]
comprised 50 mM sodium phosphate buffer (pH 7.0), 10% glycerol, and 1 M NaCl.
The eluted fractions containing the purified protein were collected, and the protein was subsequently dialyzed and stored in a buffer composed of 50 mM Tris-HCl (pH 7.0), 25 mM NaCl, 1 mM EDTA, and 50% glycerol. The catalytic activities of the purified protein samples were determined, and aliquots were stored at -80 °C for further use.
3.2 RNase H Polymerase-Independent Cleavage Assay
The HIV-1 RT-associated RNase H activity was measured as described.3 In summary, the reaction was performed in a black 96-well plate with a total volume of 100 μL. The reaction mix consisted of 50 mM Tris HCl (pH 7.8), 6 mM MgCl2, 1 mM dithiothreitol […]

[2] = recombinant HIV-1 wt RT, hybrid RNA/DNA substrate, 37 °C, 1 hour

Row | SMILES | IC50 [1, 2] | melting point | remaining activity at 100 µM [1] | IC50, compound concentration required to reduce HIV-1 RT-associated RNase H activity by 50% [1, 2]
1 | COC(=O)C1=C(C)N=C2SC(=NNc3cccc(C(=O)OC)c3)C(=O)N2C1c1ccccc1 (stereo not drawn) [Compound 10n, Methyl 2-(2-(3-(methoxycarbonyl)phenyl)hydrazineylidene)-7-methyl-3-oxo-5-phenyl-2,3-dihydro-5H-thiazolo[3,2-a]pyrimidine-6-carboxylate] | 7.03 ± 0.17 µM | 214 to 216 °C | – | –
2 | COC(=O)C1=C(C)N=C2SC(=NNc3ccc(OC)cc3S(=O)(=O)O)C(=O)N2C1c1ccc(OC)c(OC)c1OC (stereo not drawn) [Compound 11f, 5-Methoxy-2-(2-(6-(methoxycarbonyl)-7-methyl-3-oxo-5-(2,3,4-trimethoxyphenyl)-5H-thiazolo[3,2-a]pyrimidin-2(3H)-ylidene)hydrazineyl)benzenesulfonic acid] | > 100 µM | 244 to 246 °C | 61% | –
3 | COC(=O)C1=C(C)N=C2SC(=NNc3ccccc3C(C)=O)C(=O)N2C1c1ccccc1 (stereo not drawn) [Compound 10g, Methyl 2-(2-(2-acetylphenyl)hydrazineylidene)-7-methyl-3-oxo-5-phenyl-2,3-dihydro-5H-thiazolo[3,2-a]pyrimidine-6-carboxylate] | 9.01 ± 2.17 µM | 199 to 202 °C | – | –
4 | COC(=O)C1=C(C)N=C2SC(=NNc3cccc(C(C)=O)c3)C(=O)N2C1c1ccccc1 (stereo not drawn) [Compound 10m, Methyl 2-(2-(3-acetylphenyl)hydrazineylidene)-7-methyl-3-oxo-5-phenyl-2,3-dihydro-5H-thiazolo[3,2-a]pyrimidine-6-carboxylate] | 18.4 ± 0.79 µM | 213 to 216 °C | – | –
5 | COC(=O)C1=C(C)N=C2S/C(=N\Nc3ccc4ccccc4c3S(=O)(=O)O)C(=O)N2C1c1ccccc1 (stereo not drawn) [Compound 10f] | 7.04 ± 0.57 µM | 289 to 293 °C | – | –
6 | COC(=O)C1=C(C)N=C2SC(=NNc3cccc(C(=O)OC)c3)C(=O)N2C1c1ccc(OC)cc1 (stereo not drawn) [Compound 12c, Methyl 2-(2-(3-(methoxycarbonyl)phenyl)hydrazineylidene)-5-(4-methoxyphenyl)-7-methyl-3-oxo-2,3-dihydro-5H-thiazolo[3,2-a]pyrimidine-6-carboxylate] | 4.71 ± 0.86 µM | 209 to 211 °C | – | –
7 | CCOC(=O)C(=O)CC(=O)/C=C/c1cccn1Cc1ccc(F)cc1 [RDS1643, reference compound] | – | – | – | 8.6 ± 1.30 µM
8 | COC(=O)C1=C(C)N=C2SC(=NNc3ccccc3OC)C(=O)N2C1c1ccc(OC)c(OC)c1OC (stereo not drawn) [Compound 11a, Methyl 2-(2-(2-methoxyphenyl)hydrazineylidene)-7-methyl-3-oxo-5-(2,3,4-trimethoxyphenyl)-2,3-dihydro-5H-thiazolo[3,2-a]pyrimidine-6-carboxylate] | 11.8 ± 0.91 µM | 178 to 180 °C | – | –
9 | COC(=O)C1=C(C)N=C2SC(=NNc3cccc(C(C)=O)c3)C(=O)N2C1c1ccc(OC)c(OC)c1OC (stereo not drawn) [Compound 11k, Methyl 2-(2-(3-acetylphenyl)hydrazineylidene)-7-methyl-3-oxo-5-(2,3,4-trimethoxyphenyl)-2,3-dihydro-5H-thiazolo[3,2-a]pyrimidine-6-carboxylate] | 22 ± 0.36 µM | 216 to 219 °C | – | –
10 | COC(=O)C1=C(C)N=C2S/C(=N\Nc3ccc4ccccc4c3S(=O)(=O)O)C(=O)N2C1c1ccc(OC)c(OC)c1OC (stereo not drawn) [Compound 11g, (2-(6-(Methoxycarbonyl)-7-methyl-3-oxo-5-(2,3,4-trimethoxyphenyl)-5H-thiazolo[3,2-a]pyrimidin-2(3H)-ylidene)hydrazineyl)naphthalene-1-sulfonic acid] | – | 241 to 244 °C | – | –
11 | COC(=O)C1=C(C)N=C2SC(=NNc3ccccc3C(C)=O)C(=O)N2C1c1ccc(OC)c(OC)c1OC (stereo not drawn) [Compound 11i, Methyl 2-(2-(2-acetylphenyl)hydrazineylidene)-7-methyl-3-oxo-5-(2,3,4-trimethoxyphenyl)-2,3-dihydro-5H-thiazolo[3,2-a]pyrimidine-6-carboxylate] | > 100 µM | 205 to 208 °C | 100% | –
12 | COC(=O)C1=C(C)N=C2SC(=NNc3ccccc3S(=O)(=O)O)C(=O)N2C1c1ccc(OC)c(OC)c1OC (stereo not drawn) [Compound 11e, 2-(2-(6-(Methoxycarbonyl)-7-methyl-3-oxo-5-(2,3,4-trimethoxyphenyl)-5H-thiazolo[3,2-a]pyrimidin-2(3H)-ylidene)hydrazineyl)benzenesulfonic acid] | > 100 µM | 238 to 240 °C | 97% | –
13 | COC(=O)C1=C(C)N=C2SC(=NNc3ccccc3C(=O)OC)C(=O)N2C1c1ccc(OC)c(OC)c1OC (stereo not drawn) [Compound 11h, Methyl 2-(2-(2-(methoxycarbonyl)phenyl)hydrazineylidene)-7-methyl-3-oxo-5-(2,3,4-trimethoxyphenyl)-2,3-dihydro-5H-thiazolo[3,2-a]pyrimidine-6-carboxylate] | 10 ± 0.95 µM | 200 to 202 °C | – | –
14 | COC(=O)C1=C(C)N=C2SC(=NNc3ccccc3OC)C(=O)N2C1c1ccccc1 (stereo not drawn) [Compound 10i, Methyl 2-(2-(2-methoxyphenyl)hydrazineylidene)-7-methyl-3-oxo-5-phenyl-2,3-dihydro-5H-thiazolo[3,2-a]pyrimidine-6-carboxylate] | 8.32 ± 0.06 µM | 189 to 192 °C | – | –
15 | COC(=O)C1=C(C)N=C2SC(=NNc3ccccc3O)C(=O)N2C1c1ccccc1 (stereo not drawn) [Compound 10a, Methyl 2-(2-(2-hydroxyphenyl)hydrazineylidene)-7-methyl-3-oxo-5-phenyl-2,3-dihydro-5H-thiazolo[3,2-a]pyrimidine-6-carboxylate] | 18.2 ± 0.85 µM | 227 to 229 °C | – | –
16 | COC(=O)C1=C(C)N=C2SC(=NNc3cccc([N+](=O)[O-])c3)C(=O)N2C1c1ccccc1 (stereo not drawn) [Compound 10l, Methyl 7-methyl-2-(2-(3-nitrophenyl)hydrazineylidene)-3-oxo-5-phenyl-2,3-dihydro-5H-thiazolo[3,2-a]pyrimidine-6-carboxylate] | 6.41 ± 0.24 µM | 250 to 252 °C | – | –
17 | COC(=O)C1=C(C)N=C2SC(=NNc3ccccc3C(C)=O)C(=O)N2C1c1ccc(OC)cc1 (stereo not drawn) [Compound 12a, Methyl 2-(2-(2-acetylphenyl)hydrazineylidene)-5-(4-methoxyphenyl)-7-methyl-3-oxo-2,3-dihydro-5H-thiazolo[3,2-a]pyrimidine-6-carboxylate] | 3.98 ± 0.3 µM | 199 to 201 °C | – | –
18 | COC(=O)C1=C(C)N=C2SC(=NNc3ccccc3)C(=O)N2C1c1ccccc1 (stereo not drawn) [Compound 10j, Methyl 7-methyl-3-oxo-5-phenyl-2-(2-phenylhydrazineylidene)-2,3-dihydro-5H-thiazolo[3,2-a]pyrimidine-6-carboxylate] | 21.45 ± 0.1 µM | 124 to 127 °C | – | –
19 | COC(=O)C1=C(C)N=C2SC(=NNc3ccccc3C(=O)OC)C(=O)N2C1c1ccc(OC)cc1 (stereo not drawn) [Compound 12b, Methyl 2-(2-(2-(methoxycarbonyl)phenyl)hydrazineylidene)-5-(4-methoxyphenyl)-7-methyl-3-oxo-2,3-dihydro-5H-thiazolo[3,2-a]pyrimidine-6-carboxylate] | 2.97 ± 0.88 µM | 219 to 221 °C | – | –
